Kd data for one substance are collected here from paper PMC3856564 (Angewandte Chemie (International ed. in English), 2013).

The target of experiment [1] is topoisomerase (DNA) II alpha (TOP2A) (Homo sapiens, UniProt P11388). Description: surface plasmon resonance. The format is binding.
Another experiment concerns the target PARP1 (Homo sapiens, UniProt P09874). Briefly: surface plasmon resonance. It is filed as binding.

topoisomerase (DNA) II alpha (TOP2A), sequence (P11388 whole entry): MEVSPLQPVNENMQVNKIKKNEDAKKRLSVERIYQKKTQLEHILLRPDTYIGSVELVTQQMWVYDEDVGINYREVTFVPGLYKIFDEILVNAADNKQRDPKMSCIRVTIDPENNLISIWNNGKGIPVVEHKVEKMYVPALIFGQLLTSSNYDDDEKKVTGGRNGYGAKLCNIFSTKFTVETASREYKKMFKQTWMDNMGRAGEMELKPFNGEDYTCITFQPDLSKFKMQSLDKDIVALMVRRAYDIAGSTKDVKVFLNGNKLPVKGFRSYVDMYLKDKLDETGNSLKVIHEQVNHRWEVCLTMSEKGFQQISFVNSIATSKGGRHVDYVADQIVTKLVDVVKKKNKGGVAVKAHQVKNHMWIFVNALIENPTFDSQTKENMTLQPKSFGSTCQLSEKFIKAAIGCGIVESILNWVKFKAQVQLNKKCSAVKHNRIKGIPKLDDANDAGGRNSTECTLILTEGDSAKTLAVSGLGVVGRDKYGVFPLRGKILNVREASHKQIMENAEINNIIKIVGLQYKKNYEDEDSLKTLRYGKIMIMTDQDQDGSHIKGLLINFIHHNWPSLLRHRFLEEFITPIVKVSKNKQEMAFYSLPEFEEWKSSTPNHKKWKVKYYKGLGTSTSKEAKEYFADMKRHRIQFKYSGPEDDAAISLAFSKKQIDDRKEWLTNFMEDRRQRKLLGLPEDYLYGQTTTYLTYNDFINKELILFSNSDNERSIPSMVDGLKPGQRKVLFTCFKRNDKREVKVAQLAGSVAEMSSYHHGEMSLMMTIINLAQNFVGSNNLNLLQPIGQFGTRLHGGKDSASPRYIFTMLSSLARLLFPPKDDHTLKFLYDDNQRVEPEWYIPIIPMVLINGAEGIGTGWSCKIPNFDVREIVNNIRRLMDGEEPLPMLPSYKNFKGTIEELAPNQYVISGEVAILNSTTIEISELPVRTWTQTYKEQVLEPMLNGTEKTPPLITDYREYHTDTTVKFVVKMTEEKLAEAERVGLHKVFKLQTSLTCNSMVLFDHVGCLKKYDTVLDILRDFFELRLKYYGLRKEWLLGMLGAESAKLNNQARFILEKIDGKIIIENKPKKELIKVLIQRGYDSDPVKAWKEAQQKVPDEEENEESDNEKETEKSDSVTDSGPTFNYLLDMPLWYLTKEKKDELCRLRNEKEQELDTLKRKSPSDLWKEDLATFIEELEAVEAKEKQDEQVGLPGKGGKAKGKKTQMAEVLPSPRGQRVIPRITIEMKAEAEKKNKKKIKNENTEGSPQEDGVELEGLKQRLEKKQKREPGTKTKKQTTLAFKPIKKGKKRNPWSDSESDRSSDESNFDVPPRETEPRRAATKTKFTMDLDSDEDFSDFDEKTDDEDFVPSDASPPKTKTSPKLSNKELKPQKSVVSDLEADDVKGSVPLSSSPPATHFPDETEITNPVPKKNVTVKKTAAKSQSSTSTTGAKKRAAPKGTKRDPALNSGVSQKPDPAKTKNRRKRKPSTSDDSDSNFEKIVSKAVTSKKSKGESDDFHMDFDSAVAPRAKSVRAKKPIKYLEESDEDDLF
PARP1, sequence (P09874 2-1014): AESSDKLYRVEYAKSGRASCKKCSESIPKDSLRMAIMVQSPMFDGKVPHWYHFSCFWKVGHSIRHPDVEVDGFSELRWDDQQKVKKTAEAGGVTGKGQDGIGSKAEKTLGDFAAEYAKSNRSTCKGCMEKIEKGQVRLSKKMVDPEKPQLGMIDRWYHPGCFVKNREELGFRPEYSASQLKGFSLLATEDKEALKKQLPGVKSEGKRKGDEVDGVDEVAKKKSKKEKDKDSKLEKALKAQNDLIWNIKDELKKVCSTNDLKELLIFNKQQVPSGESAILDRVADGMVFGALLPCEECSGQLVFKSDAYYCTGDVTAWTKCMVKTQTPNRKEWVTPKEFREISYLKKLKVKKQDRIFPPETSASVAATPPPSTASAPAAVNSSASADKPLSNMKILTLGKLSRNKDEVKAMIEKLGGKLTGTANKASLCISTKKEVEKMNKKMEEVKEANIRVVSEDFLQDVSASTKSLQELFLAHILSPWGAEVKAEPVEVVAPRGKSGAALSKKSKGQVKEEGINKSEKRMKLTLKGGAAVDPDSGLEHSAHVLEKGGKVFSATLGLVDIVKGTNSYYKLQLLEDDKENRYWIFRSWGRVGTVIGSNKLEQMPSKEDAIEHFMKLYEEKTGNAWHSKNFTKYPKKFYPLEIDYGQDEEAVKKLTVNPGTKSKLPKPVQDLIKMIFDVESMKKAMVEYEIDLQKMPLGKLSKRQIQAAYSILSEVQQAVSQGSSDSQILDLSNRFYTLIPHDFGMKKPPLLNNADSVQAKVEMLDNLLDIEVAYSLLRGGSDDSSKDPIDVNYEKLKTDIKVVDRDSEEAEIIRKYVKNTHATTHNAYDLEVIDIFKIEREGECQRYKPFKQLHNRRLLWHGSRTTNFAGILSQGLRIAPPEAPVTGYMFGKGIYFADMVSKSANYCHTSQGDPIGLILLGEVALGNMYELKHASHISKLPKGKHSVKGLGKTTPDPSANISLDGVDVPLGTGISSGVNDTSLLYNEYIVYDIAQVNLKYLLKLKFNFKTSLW

Consider Olaparib-TCO, for which the dissociation constant (Kd) in experiment [1] was roughly 3.7 nM; on PARP1, 22 nM.
